From the supplement of paper PMC10307832

Key:
Assay in all cases: relative viability (nuclei count vs DMSO), 5 days (fraction); higher = more cells survive
NCI-H727 = test system: NCI-H727
Procedure, shortened: (§1)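 One day after seeding in 1536-well plates, lung cancer cell lines were dosed by pin tool. Dosing was either single-drug or a fixed anchor-drug dose plus five library-drug doses (not always all listed) in √10 steps. After 5 days, nuclei were stained in one fix-and-stain step and counted on 4× images, and relative viability is the nuclei count of treated wells over that of vehicle wells, given as the median of duplicate plates.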

NCI-H2023 = test system: NCI-H2023
Procedure, shortened: as §1

RERF-LC-KJ = test system: RERF-LC-KJ
Procedure, shortened: as §1

NCI-H2126 = test system: NCI-H2126
Procedure, shortened: as §1

NCI-H650 = test system: NCI-H650
Procedure, shortened: as §1

LOU-NH91 = test system: LOU-NH91
Procedure, shortened: as §1

NCI-H1755 = test system: NCI-H1755
Procedure, shortened: as §1

NCI-H1437 = test system: NCI-H1437
Procedure, shortened: as §1

LCLC-103H = test system: LCLC-103H
Procedure, shortened: as §1

NCI-H441 = test system: NCI-H441
Procedure, shortened: as §1

HCC-827 = test system: HCC-827
Procedure, shortened: as §1

NCI-H1792 = test system: NCI-H1792
Procedure, shortened: as §1

NCI-H2085 = test system: NCI-H2085
Procedure, shortened: as §1

NCI-H2342 = test system: NCI-H2342
Procedure, shortened: as §1

NCI-H2170 = test system: NCI-H2170
Procedure, shortened: as §1

LCLC-97TM1 = test system: LCLC-97TM1
Procedure, shortened: as §1

SK-MES-1 = test system: SK-MES-1
Procedure, shortened: as §1

201T = test system: 201T
Procedure, shortened: as §1

NCI-H596 = test system: NCI-H596
Procedure, shortened: as §1

ChaGo-K-1 = test system: ChaGo-K-1
Procedure, shortened: as §1

NCI-H2405 = test system: NCI-H2405
Procedure, shortened: as §1

## COCC1(CO)C(=O)C2CCN1CC2 (stereo not drawn) [PRIMA-1MET] + CCNC(=O)c1noc(-c2cc(C(C)C)c(O)cc2O)c1-c1ccc(CN2CCOCC2)cc1 [Luminespib] (partner 0.01 µM)
NCI-H727; first compound 0.2 µM
  relative viability: 0.615
NCI-H727; first compound 0.6325 µM
  relative viability: 0.328
NCI-H727; first compound 2 µM
  relative viability: 0.236
NCI-H727; first compound 6.325 µM
  relative viability: 0.426
NCI-H727; first compound 20 µM
  relative viability: 0.213
NCI-H2023; first compound 0.2 µM
  relative viability: 0.957
NCI-H2023; first compound 0.6325 µM
  relative viability: 0.85
NCI-H2023; first compound 2 µM
  relative viability: 0.745
NCI-H2023; first compound 6.325 µM
  relative viability: 0.685
NCI-H2023; first compound 20 µM
  relative viability: 0.642
RERF-LC-KJ; first compound 0.2 µM
  relative viability: 1.42
RERF-LC-KJ; first compound 0.6325 µM
  relative viability: 1.29
RERF-LC-KJ; first compound 2 µM
  relative viability: 1.36
RERF-LC-KJ; first compound 6.325 µM
  relative viability: 1.37
RERF-LC-KJ; first compound 20 µM
  relative viability: 1.03
NCI-H2126; first compound 0.2 µM
  relative viability: 0.963
NCI-H2126; first compound 0.6325 µM
  relative viability: 0.867
NCI-H2126; first compound 2 µM
  relative viability: 0.89
NCI-H2126; first compound 6.325 µM
  relative viability: 0.929
NCI-H2126; first compound 20 µM
  relative viability: 0.885
NCI-H650; first compound 0.2 µM
  relative viability: 1.19
NCI-H650; first compound 2 µM
  relative viability: 0.666
NCI-H650; first compound 6.325 µM
  relative viability: 0.746
NCI-H650; first compound 20 µM
  relative viability: 0.373
LOU-NH91; first compound 0.2 µM
  relative viability: 0.347
LOU-NH91; first compound 0.6325 µM
  relative viability: 0.353
LOU-NH91; first compound 2 µM
  relative viability: 0.365
LOU-NH91; first compound 6.325 µM
  relative viability: 0.42
LOU-NH91; first compound 20 µM
  relative viability: 0.265
NCI-H1755; first compound 0.2 µM
  relative viability: 0.527
NCI-H1755; first compound 0.6325 µM
  relative viability: 0.332
NCI-H1755; first compound 2 µM
  relative viability: 0.404
NCI-H1755; first compound 6.325 µM
  relative viability: 0.51
NCI-H1755; first compound 20 µM
  relative viability: 0.454
NCI-H1437; first compound 0.2 µM
  relative viability: 1.18
NCI-H1437; first compound 0.6325 µM
  relative viability: 1.08
NCI-H1437; first compound 2 µM
  relative viability: 1.09
NCI-H1437; first compound 6.325 µM
  relative viability: 1.16
NCI-H1437; first compound 20 µM
  relative viability: 1.01
LCLC-103H; first compound 0.2 µM
  relative viability: 1.05
LCLC-103H; first compound 0.6325 µM
  relative viability: 0.831
LCLC-103H; first compound 2 µM
  relative viability: 0.892
LCLC-103H; first compound 6.325 µM
  relative viability: 0.985
LCLC-103H; first compound 20 µM
  relative viability: 0.307
NCI-H441; first compound 0.2 µM
  relative viability: 0.437
NCI-H441; first compound 0.6325 µM
  relative viability: 0.334
NCI-H441; first compound 2 µM
  relative viability: 0.276
NCI-H441; first compound 6.325 µM
  relative viability: 0.365
NCI-H441; first compound 20 µM
  relative viability: 0.277
HCC-827; first compound 0.2 µM
  relative viability: 0.761
HCC-827; first compound 0.6325 µM
  relative viability: 0.624
HCC-827; first compound 2 µM
  relative viability: 0.303
HCC-827; first compound 6.325 µM
  relative viability: 0.477
HCC-827; first compound 20 µM
  relative viability: 0.447
NCI-H1792; first compound 0.2 µM
  relative viability: 0.533
NCI-H1792; first compound 0.6325 µM
  relative viability: 0.491
NCI-H1792; first compound 2 µM
  relative viability: 0.394
NCI-H1792; first compound 6.325 µM
  relative viability: 0.466
NCI-H1792; first compound 20 µM
  relative viability: 0.45
NCI-H2085; first compound 0.2 µM
  relative viability: 0.55
NCI-H2085; first compound 0.6325 µM
  relative viability: 0.44
NCI-H2085; first compound 2 µM
  relative viability: 0.3
NCI-H2085; first compound 6.325 µM
  relative viability: 0.42
NCI-H2085; first compound 20 µM
  relative viability: 0.267
NCI-H2342; first compound 0.2 µM
  relative viability: 0.722
NCI-H2342; first compound 0.6325 µM
  relative viability: 0.696
NCI-H2342; first compound 2 µM
  relative viability: 0.57
NCI-H2342; first compound 6.325 µM
  relative viability: 0.675
NCI-H2342; first compound 20 µM
  relative viability: 0.602
NCI-H2170; first compound 0.2 µM
  relative viability: 1.06
NCI-H2170; first compound 0.6325 µM
  relative viability: 0.545
NCI-H2170; first compound 2 µM
  relative viability: 0.557
NCI-H2170; first compound 6.325 µM
  relative viability: 0.68
NCI-H2170; first compound 20 µM
  relative viability: 0.667
LCLC-97TM1; first compound 0.2 µM
  relative viability: 0.824
LCLC-97TM1; first compound 0.6325 µM
  relative viability: 0.531
LCLC-97TM1; first compound 2 µM
  relative viability: 0.877
LCLC-97TM1; first compound 6.325 µM
  relative viability: 0.841
LCLC-97TM1; first compound 20 µM
  relative viability: 0.674
SK-MES-1; first compound 0.2 µM
  relative viability: 1.04
SK-MES-1; first compound 0.6325 µM
  relative viability: 0.579
SK-MES-1; first compound 2 µM
  relative viability: 0.885
SK-MES-1; first compound 6.325 µM
  relative viability: 0.829
SK-MES-1; first compound 20 µM
  relative viability: 0.746
201T; first compound 0.2 µM
  relative viability: 1.17
201T; first compound 0.6325 µM
  relative viability: 0.937
201T; first compound 2 µM
  relative viability: 0.926
201T; first compound 6.325 µM
  relative viability: 1.05
201T; first compound 20 µM
  relative viability: 1.06
NCI-H596; first compound 0.2 µM
  relative viability: 0.921
NCI-H596; first compound 0.6325 µM
  relative viability: 0.809
NCI-H596; first compound 2 µM
  relative viability: 0.858
NCI-H596; first compound 6.325 µM
  relative viability: 0.936
NCI-H596; first compound 20 µM
  relative viability: 0.109
ChaGo-K-1; first compound 0.2 µM
  relative viability: 0.694
ChaGo-K-1; first compound 0.6325 µM
  relative viability: 0.531
ChaGo-K-1; first compound 2 µM
  relative viability: 0.57
ChaGo-K-1; first compound 6.325 µM
  relative viability: 0.592
ChaGo-K-1; first compound 20 µM
  relative viability: 0.346
NCI-H2405; first compound 0.2 µM
  relative viability: 0.65
NCI-H2405; first compound 0.6325 µM
  relative viability: 0.598
NCI-H2405; first compound 6.325 µM
  relative viability: 0.688
NCI-H2405; first compound 20 µM
  relative viability: 0.249
